From US20190343908A1, “Therapeutic Combination for the Treatment of Cancer” (Nerium Biotechnology Inc., priority 2011, published 2019)

Tests used:
[1] = tested on: PANC-1 pancreatic cancer cell line; test: Methyl-Tetrazolium viability assay, PANC-1; format: cell-based, human; set-up: key to Average MTT: absorbance at 570 nm (optical density); conditions: for ABSORBANCE: 0.1 μg/mL cisplatin; for MTT 24 h / MTT 48 h / MTT 72 h: Run 1 average
Text: The Methyl-Tetrazolium dye assay measures the activity of enzymes in mitochondria. The dye precursor is taken up by cells, where it undergoes reduction to the purple formazan. It measures only the mitochondrial activity and, thus, it is not always a reliable indication of whether the cells themselves are alive or dead, since even a recently dead cell has […] enzyme activity in mitochondria. Intracellular glucose concentration, pH, and time before assay all affect the measurements.
(§1) The Methyl Tetrazolium, Sulforhodamine B, and Crystal Violet assays were used to assess cell viabilities. The incubation times were 24 hours, 48 hours, and 72 hours. The Nerium oleander extract Anvirzel™ (a hot water extract of oleander obtained from Salud Integral, Honduras) was tested in concentrations ranging from 0.01 ng/mL to 10 ng/mL.
(§2) Cells were detached by trypsinization (Trypsin-0.25% EDTA, Invitrogen, 25200-072) during the logarithmic phase of culture growth and plated in 96-well plates (18.000 cells/well) (Corning, Costar 359) in a final volume of 200 μl of medium per well. […] The absorbance was measured after 24 hours, 48 hours, and 72 hours of incubation.
For the Methyl-Tetrazolium assay, the dye (Sigma, M2128; 5 mg/mL, diluted in phosphate-buffered saline) was added to each well and plates were incubated for 3 hours at 37° C. After the end of the incubation period, the medium was discarded and the cells were rinsed with phosphate-buffered saline. Finally, the formazan crystals were dissolved in dimethylsulphoxide (Sigma, D4540).
(§3) The optical density of each plate was measured on a μQuant spectrophotometer and the data were analyzed with Gen5 software (μQuant Biomolecular Spectrophotometer MQX200 and Gen5™ Microplate Data Collection & Analysis software, BioTek® Instruments. Inc, April 2008). Absorbance was measured at 570 nm for all assays and a second wavelength was measured in order to subtract noise. For the Methyl-Tetrazolium assay this second wavelength was 630 nm and for the Sulforhodamine B and Crystal Violet assays it was 690 nm.

[2] = tested on: PC3 (human prostate cancer); test: Sulforhodamine B viability assay, PC3; format: cell-based
Text: Three different viability assays were chosen to complement each other and yielded results dependent on concentration and cell line: the Methyl Tetrazolium dye assay, the Sulforhodamine B fluorescent dye assay, and the Crystal Violet dye assay.
The Sulforhodamine B and Crystal Violet assays provide information about protein and were used to complement the Methyl-Tetrazolium dye assay. […] It is used for the quantification of cellular proteins of cultured cells. The assay using Crystal Violet, a dye that binds electrostatically to proteins and stains DNA, provides a reliable, simple assay for measuring viability of cells.
as §1, §2
For the Sulforhodamine B assay, 96-well plates were fixed by 10% trichloroacetic acid (Fluka, 91228) and were incubated at 4° C. for 1 hour. Afterwards, plates were rinsed with water and cells were stained with 0.4% Sulforhodamine B (Sigma, 341738), dissolved in 1% acetic acid (Carlo Ebra, 401422) for 15 minutes at room temperature (RT). The unbound stain was washed twice with 1% acetic acid. Finally, 10 mM Tris Buffer pH 10.5 (Sigma, T6791) was added to dissolve the dye.
as §3

N.N.[Cl][Pt][Cl] [cisplatin]
ABSORBANCE ([1]; PANC-1, 48 h): 0.286
ABSORBANCE ([1]; PANC-1, 72 h): 0.344
Average MTT ([1]; PANC-1, Run 2, 24 h, 0.1 μg/ml CDDP): 0.096
Average MTT ([1]; PANC-1, Run 2, 24 h, 1 μg/ml CDDP): 0.029
Average MTT ([1]; PANC-1, Run 2, 24 h, 10 μg/ml CDDP): 0.058
Average MTT ([1]; PANC-1, Run 2, 24 h, 100 μg/ml CDDP): 0.029
Average MTT ([1]; PANC-1, Run 2, 48 h, 0.1 μg/ml CDDP): 0.178
Average MTT ([1]; PANC-1, Run 2, 48 h, 1 μg/ml CDDP): 0.037
Average MTT ([1]; PANC-1, Run 2, 48 h, 10 μg/ml CDDP): 0.041
Average MTT ([1]; PANC-1, Run 2, 48 h, 100 μg/ml CDDP): 0.034
Average MTT ([1]; PANC-1, Run 2, 72 h, 0.1 μg/ml CDDP): 0.241
Average MTT ([1]; PANC-1, Run 2, 72 h, 1 μg/ml CDDP): 0.033
Average MTT ([1]; PANC-1, Run 2, 72 h, 10 μg/ml CDDP): 0.04
Average MTT ([1]; PANC-1, Run 2, 72 h, 100 μg/ml CDDP): 0.033
Average MTT ([1]; PANC-1, Run 3, 24 h, 0.1 μg/ml CDDP): 0.076
Average MTT ([1]; PANC-1, Run 3, 24 h, 1 μg/ml CDDP): 0.02
Average MTT ([1]; PANC-1, Run 3, 24 h, 10 μg/ml CDDP): 0.04
Average MTT ([1]; PANC-1, Run 3, 24 h, 100 μg/ml CDDP): 0.022
Average MTT ([1]; PANC-1, Run 3, 48 h, 0.1 μg/ml CDDP): 0.286
Average MTT ([1]; PANC-1, Run 3, 48 h, 1 μg/ml CDDP): 0.043
Average MTT ([1]; PANC-1, Run 3, 48 h, 10 μg/ml CDDP): 0.045
Average MTT ([1]; PANC-1, Run 3, 48 h, 100 μg/ml CDDP): 0.044
Average MTT ([1]; PANC-1, Run 3, 72 h, 0.1 μg/ml CDDP): 0.344
Average MTT ([1]; PANC-1, Run 3, 72 h, 1 μg/ml CDDP): 0.049
Average MTT ([1]; PANC-1, Run 3, 72 h, 10 μg/ml CDDP): 0.05
Average MTT ([1]; PANC-1, Run 3, 72 h, 100 μg/ml CDDP): 0.049
MTT 24 h ([1]; 0.1 μg/ml CDDP): 0.169
MTT 48 h ([1]; 0.1 μg/ml CDDP): 0.24
MTT 24 h ([1]; 1 μg/ml CDDP): 0.035
MTT 48 h ([1]; 1 μg/ml CDDP): 0.035
MTT 72 h ([1]; 1 μg/ml CDDP): 0.03
MTT 24 h ([1]; 10 μg/ml CDDP): 0.048
MTT 48 h ([1]; 10 μg/ml CDDP): 0.038
MTT 72 h ([1]; 10 μg/ml CDDP): 0.035
MTT 24 h ([1]; 100 μg/ml CDDP): 0.034
MTT 48 h ([1]; 100 μg/ml CDDP): 0.039
MTT 72 h ([1]; 100 μg/ml CDDP): 0.032
SRB Average ([2]; PC3 Run 1, 24 h, 0.1 μg/ml CDDP): 2.058
SRB Average ([2]; PC3 Run 1, 24 h, 1 μg/ml CDDP): 1.352
SRB Average ([2]; PC3 Run 1, 24 h, 10 μg/ml CDDP): 1.604
SRB Average ([2]; PC3 Run 1, 24 h, 100 μg/ml CDDP): 1.605
SRB Average ([2]; PC3 Run 1, 48 h, 0.1 μg/ml CDDP): 2.343
SRB Average ([2]; PC3 Run 1, 48 h, 1 μg/ml CDDP): 1.677
SRB Average ([2]; PC3 Run 1, 48 h, 10 μg/ml CDDP): 2.159
SRB Average ([2]; PC3 Run 1, 48 h, 100 μg/ml CDDP): 1.851
SRB Average ([2]; PC3 Run 1, 72 h, 0.1 μg/ml CDDP): 2.256
SRB Average ([2]; PC3 Run 1, 72 h, 1 μg/ml CDDP): 2.227
SRB Average ([2]; PC3 Run 1, 72 h, 10 μg/ml CDDP): 2.554
SRB Average ([2]; PC3 Run 1, 72 h, 100 μg/ml CDDP): 1.543
SRB Average ([2]; PC3 Run 2, 24 h, 0.1 μg/ml CDDP): 1.578
SRB Average ([2]; PC3 Run 2, 24 h, 1 μg/ml CDDP): 1.469
SRB Average ([2]; PC3 Run 2, 24 h, 10 μg/ml CDDP): 1.403
SRB Average ([2]; PC3 Run 2, 24 h, 100 μg/ml CDDP): 1.5
SRB Average ([2]; PC3 Run 2, 48 h, 0.1 μg/ml CDDP): 2.279
SRB Average ([2]; PC3 Run 2, 48 h, 1 μg/ml CDDP): 2.066
SRB Average ([2]; PC3 Run 2, 48 h, 10 μg/ml CDDP): 2.144
SRB Average ([2]; PC3 Run 2, 48 h, 100 μg/ml CDDP): 1.77
SRB Average ([2]; PC3 Run 2, 72 h, 0.1 μg/ml CDDP): 2.069
SRB Average ([2]; PC3 Run 2, 72 h, 1 μg/ml CDDP): 1.64
SRB Average ([2]; PC3 Run 2, 72 h, 10 μg/ml CDDP): 1.63
SRB Average ([2]; PC3 Run 2, 72 h, 100 μg/ml CDDP): 1.271
SRB Average ([2]; PC3 Run 3, 24 h, 0.1 μg/ml CDDP): 1.595
SRB Average ([2]; PC3 Run 3, 24 h, 1 μg/ml CDDP): 1.326
SRB Average ([2]; PC3 Run 3, 24 h, 10 μg/ml CDDP): 1.24
SRB Average ([2]; PC3 Run 3, 24 h, 100 μg/ml CDDP): 1.125
SRB Average ([2]; PC3 Run 3, 48 h, 0.1 μg/ml CDDP): 1.52
SRB Average ([2]; PC3 Run 3, 48 h, 1 μg/ml CDDP): 1.1
SRB Average ([2]; PC3 Run 3, 48 h, 10 μg/ml CDDP): 1.474
SRB Average ([2]; PC3 Run 3, 48 h, 100 μg/ml CDDP): 1.153
SRB Average ([2]; PC3 Run 3, 72 h, 0.1 μg/ml CDDP): 1.643
SRB Average ([2]; PC3 Run 3, 72 h, 1 μg/ml CDDP): 1.069
SRB Average ([2]; PC3 Run 3, 72 h, 10 μg/ml CDDP): 1.122
SRB Average ([2]; PC3 Run 3, 72 h, 100 μg/ml CDDP): 0.839
